Values of other authors in patent US20110091544A1 (priority 2009, published 2011).
Read-outs that look alike come from different tables or passages of the source.

Assays:
[1] = system: pediatric patients undergoing outpatient surgery; conditions: in vivo
patients = conditions: 7.5 mg; at 30 and 60 min after administration
[2] = 0.2 mg/kg; 30 min after premedication; children
[3] = system: children scheduled for day surgery
acute seizures = conditions: nasal
[4] = 250 mcg or 375 mcg sublingual
[5] = not given; remark: listed apart in the source
healthy children = conditions: oral 0.025 mg/kg, children aged 6 to 9 years
[6] = system: 61-70 year old patients scheduled for ophthalmic surgery; conditions: 200 mcg sublingual
dental outpatients = conditions: in vivo
[7] = not given; remark: listed apart in the source
[8] = system: healthy young subjects and healthy elderly subjects; conditions: 125 mcg and 250 mcg

## Cc1ncc2n1-c1ccc(Cl)cc1C(c1ccccc1F)=NC2 [midazolam, 8-chloro-6-(2-fluorophenyl)-1-methyl-4H-imidazo[1,5-a][1,4]benzodiazepine]
[1]
  children who had not previously cried who cried on administration: 71%
  patients who experienced nasal irritation: 20 patients
patients
  sedation scores, sublingual group versus oral group: higher
[2]
  midazolam level, sublingual group versus nasal group: statistically significantly higher
[3]; 0.25 mg/kg sublingual, P=0.02
  children showing satisfactory sedation at 15 min after administration: 28%
[3]; 0.5 mg/kg sublingual, P<0.001
  children showing satisfactory sedation at 15 min after administration: 52%
[3]; 0.75 mg/kg sublingual, P<0.001
  children showing satisfactory sedation at 15 min after administration: 64%
Acute seizures
  treatment of acute seizures: effective
15 mg oral dose
  maximum plasma concentrations: 70 to 120 ng/mL
  time to maximum plasma concentrations: within one hour
Adults greater than 60 years
  prolongation of plasma half-life: up to 3 times
Orally administered
  plasma half-life: 1.5 to 5 h
With a broad range
  oral bioavailability: approximately 36%

## Cc1nnc2n1-c1ccc(Cl)cc1C(c1ccccc1Cl)=NC2 [triazolam, 8-chloro-6-(o-chlorophenyl)-1-methyl-4H-s-triazolo-[4,3-alpha][1,4]benzodiazepine]
[4]; children
  Cmax, range: 4.0 to 8.2 ng/mL
  Tmax, range: 0.5 to 2 h
  elimination half-life, range: 0.85 to 2.33 h
[4]; children 64-98 months old, mean+/−SD
  Cmax: 4.9 ± 2.0 ng/mL
[4]; children, mean+/−SD
  Tmax: 1.25 ± 0.533 h
  elimination half-life: 1.52 ± 0.533 h
[5]; elderly versus young adults
  increase in Cmax: 50%
[5]; no change elderly versus young adults
  Tmax: 0.9 h
[5]; orally administered
  plasma half-life: 1.5 to 5.5 h
[5]; sublingual compared with oral administration
  higher peak plasma level: 20%
Healthy children
  time to peak plasma concentration: 74 ± 25 min
Healthy children; mean+/−SD
  peak plasma concentration: 8.5 ± 3.0 ng/mL
[6]
  depth of sedation compared with 10 mg oral diazepam: deeper sedation
  time at which sedation developed after administration: 60 to 90 min
Dental outpatients
  higher bioavailability: 28%
Dental outpatients; po
  anxiety and pain at 15 minutes intraoperatively: significantly less anxiety and pain
[7]; 500 mcg oral
  elimination half-life: 3.7 h
  mean total area under the curve: 22.6 ng·h/mL
  peak plasma concentration: 3.9 ng/mL
  time of peak concentration: 1.25 h
[7]; 500 mcg sublingual
  elimination half-life: 4.1 h
  mean total area under the curve: 28.9 ng·h/mL
  peak plasma concentration: 4.7 ng/mL
  time of peak concentration: 1.22 h
[7]; 500 mcg sublingual versus oral, average
  bioavailability greater than oral: 28%
[8]
  sedation and psychomotor performance, healthy elderly versus young persons at the same dose: greater degree of sedation and greater impairment of psychomotor performance
